What all share (test): inhibition of tumour cell growth, NCI panel, 48 h
Assay [1] concerns BT-549.
For assay [2], the system named is CCRF-CEM.
Assay [3] relates to HCC 2998.
Assay [4] concerns HCT-116.
Assay [5] relates to HCT-15.
Assay [6] concerns HL-60.
Assay [7] concerns HOP-62.
Assay [8] has as its system M14.
In assay [9] the test system is MDA-MB-231.
Assay [10] concerns NCI-H23.
Assay [11] concerns NCI-H460.
The subject of assay [12] is OVCAR-5.
Assay [13] concerns PC-3.
Assay [14] relates to RPMI-8226.
Assay [15] relates to SK-MEL-28.
For assay [16], the system named is SK-MEL-2.
The test system of assay [17] is SN12C.
The test system of assay [18] is T47D.
Assay [19] concerns U-251.
Assay [20] relates to UO-31.

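Protocol summary: plate cells (96-well), add compound at 5 concentrations, incubate 48 h, interpolate endpoints linearly. The concentration for 50% growth inhibition is given as GI50.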 Active and inactive are the calls of the source. No stated cut-off is given here; in the data, active = GI50 up to about 1.1 µM and inactive = higher.

For `Cc1c(-c2nc(N)c(C#N)c(N)c2C#N)c(=O)oc2ccccc12`, the GI50 was > 100 µM (inactive) in assay [1]; 69 µM (inactive) in assay [2]; > 100 µM (inactive) in [3]; 78.2 µM (inactive) in assay [4]; 80.7 µM in assay [5]; 63.5 µM (inactive) in assay [6]. Also, the GI50 in assay [7] is 67.3 µM (inactive); in assay [8], > 100 µM (inactive); in assay [9], > 100 µM (inactive); in assay [10], 87.9 µM (inactive); in [11], > 100 µM (inactive); in [12], > 100 µM (inactive). Further, the GI50 in assay [13] was 34.5 µM (inactive); in assay [14], 23.6 µM (inactive); in [15], > 100 µM (inactive); in assay [16], > 100 µM (inactive); in assay [17], > 100 µM (inactive); in assay [18], 89.5 µM (inactive). Also, the results for the GI50 in [19] and in assay [20] were 55.3 µM (inactive) and > 100 µM (inactive), respectively.
`Cn1c(=O)c2[nH]c(-n3nc(-c4ccccc4)cc3N)nc2n(C)c1=O`: the GI50 in assay [1] is 14.5 µM (inactive); in assay [2], 2.64 µM (inactive); in assay [3], 8.67 µM (inactive); in [4] it was 6.49 µM (inactive); in [5] it was 0.8 µM; in [6], 12 µM (inactive). The GI50 in assay [7] is 12.5 µM (inactive); in assay [8] it was 10.5 µM (inactive); in [9], 10.6 µM (inactive); in [11], 3.3 µM (inactive); in assay [12], 21.3 µM (inactive); in assay [13] it was 19.7 µM (inactive). Further, the GI50 is 12.6 µM (inactive) in assay [14]; 11 µM (inactive) in assay [15]; 14.6 µM (inactive) in assay [16]; 4.6 µM (inactive) in assay [17]; 11.3 µM (inactive) in [18]; 6.78 µM (inactive) in assay [19]. Besides, the GI50 in [20] is 6.89 µM (inactive).
Regarding `CCN(CC)C(=O)Cn1c2ccccc2[n+]2cc(N)ccc12`, the GI50 in assay [1] is > 100 µM (inactive); in assay [2], > 100 µM (inactive); in assay [3] it was > 100 µM (inactive); in [4] it was > 100 µM (inactive); in assay [5] it was over 100 µM; in [6], > 100 µM (inactive). For the same molecule, the GI50 in assay [7], in assay [8], in assay [9], in assay [10], in assay [11] and in assay [12] was > 100 µM (inactive) in each case. Moreover, the GI50 in assay [13], in assay [14], in assay [15], in assay [16], in assay [18] and in assay [19] was > 100 µM (inactive) each time. Besides, the GI50 in assay [20] was > 100 µM (inactive).
For the molecule `COc1ccc2c3c(ccc2c1)NC(C(=O)O)CC3` (stereo unspecified), the GI50 is > 100 µM (inactive) in assay [1]; 44.3 µM (inactive) in assay [3]; 80.2 µM (inactive) in assay [4]; 51.8 µM in assay [5]; 26.1 µM (inactive) in assay [6]; 80.5 µM (inactive) in assay [7]. Further, the GI50 is 45.1 µM (inactive) in assay [8]; 85.7 µM (inactive) in assay [9]; > 100 µM (inactive) in [10]; 49.8 µM (inactive) in assay [11]; > 100 µM (inactive) in [12]; 74.6 µM (inactive) in assay [13]. Also, the GI50 is 17.1 µM (inactive) in [14]; 67.8 µM (inactive) in [15]; > 100 µM (inactive) in assay [16]; 63.1 µM (inactive) in assay [17]; 26.9 µM (inactive) in assay [18]; 38.2 µM (inactive) in assay [19]. Moreover, the GI50 in [20] was 47 µM (inactive).
Turning to `CC(CO)(CBr)COC(=O)c1cc(Br)c(N)c(Br)c1` (stereo unspecified), the GI50 was 76.2 µM (inactive) in assay [1]; > 100 µM (inactive) in [2]; > 100 µM (inactive) in assay [3]; 94 µM (inactive) in [4]; over 100 µM in assay [5]; > 100 µM (inactive) in [6]. In addition, the GI50 is 32.4 µM (inactive) in assay [7]; > 100 µM (inactive) in [8]; 37.1 µM (inactive) in [9]; 79.3 µM (inactive) in [10]; > 100 µM (inactive) in assay [12]; > 100 µM (inactive) in assay [13]. Moreover, the GI50 in [14] was > 100 µM (inactive); in assay [15] it was > 100 µM (inactive); in assay [16], > 100 µM (inactive); in assay [17], > 100 µM (inactive); in assay [18], > 100 µM (inactive); in assay [19], 54 µM (inactive). In addition, the GI50 in assay [20] was 2.67 µM (inactive).
For `N#CCc1nc(-c2cc3ccccc3oc2=O)cs1`, the GI50 in assay [1] was 17.9 µM (inactive); in assay [2], 30.5 µM (inactive); in [3] it was > 100 µM (inactive); in assay [4] it was 80.5 µM (inactive); in assay [5], 35.8 µM; in [6], 17.5 µM (inactive). Besides, the GI50 is 62.7 µM (inactive) in assay [7]; 35.6 µM (inactive) in [8]; 79.3 µM (inactive) in [9]; 75.2 µM (inactive) in assay [11]; > 100 µM (inactive) in [12]; 29.8 µM (inactive) in assay [13]. For the same molecule, the GI50 was 33.7 µM (inactive) in [14]; 37.3 µM (inactive) in assay [15]; 25.4 µM (inactive) in assay [16]; > 100 µM (inactive) in assay [17]; 40.1 µM (inactive) in assay [18]; > 100 µM (inactive) in assay [19]. For the same molecule, the GI50 in assay [20] is 40.4 µM (inactive).
In the case of `O=S1(=O)c2ccccc2N2C(c3ccccc3)=NOC2(c2ccccc2)CC1c1ccc(Br)cc1` (stereo unspecified), the GI50 in assay [1] was > 100 µM (inactive); in assay [2] it was > 100 µM (inactive); in assay [3] it was > 100 µM (inactive); in assay [4] it was > 100 µM (inactive); in assay [5] it was over 100 µM; in assay [6], > 100 µM (inactive). For the same molecule, the GI50 is > 100 µM (inactive) in assay [7]; 95.7 µM (inactive) in assay [8]; > 100 µM (inactive) in [9]; > 100 µM (inactive) in [10]; > 100 µM (inactive) in [11]; > 100 µM (inactive) in [12]. The GI50 in [13], in [15], in [16], in assay [17], in assay [18] and in assay [19] was > 100 µM (inactive) each time. Moreover, the GI50 in [20] is > 100 µM (inactive).
`COC(=O)[C@@H]1C[C@]2(CC=C(C)C)c3ccccc3N(S(=O)(=O)c3ccccc3)[C@@H]2N1C(=O)OC`: the GI50 in assay [1] is 32.2 µM (inactive); in [2] it was 27.9 µM (inactive); in [3], 10.6 µM (inactive); in assay [4], 20 µM (inactive); in assay [5], 10.4 µM; in assay [6], 9.14 µM (inactive). The GI50 is 26.8 µM (inactive) in [7]; 20.4 µM (inactive) in [9]; > 100 µM (inactive) in assay [10]; 14.1 µM (inactive) in [11]; > 100 µM (inactive) in assay [12]; 17 µM (inactive) in [13]. For the same molecule, the GI50 in [14] was 6.67 µM (inactive); in assay [15] it was 47.1 µM (inactive); in assay [16] it was 5.96 µM (inactive); in [17], 40.6 µM (inactive); in assay [18] it was 5.94 µM (inactive); in assay [19] it was 13.3 µM (inactive). The GI50 in [20] was 28.8 µM (inactive).
`CCOC(=O)C[n+]1cccc(C2(c3cc4ccccc4[nH]3)OCCO2)c1`: the GI50 in assay [1] was > 100 µM (inactive); in [2], > 100 µM (inactive); in assay [3] it was > 100 µM (inactive); in [4] it was > 100 µM (inactive); in assay [5], over 100 µM; in assay [6], > 100 µM (inactive). The GI50 in assay [7], in [8], in [9], in assay [10], in [11] and in [12] was > 100 µM (inactive) each time. The GI50 in assay [13], in assay [14], in assay [15], in [16], in [18] and in assay [19] was > 100 µM (inactive) throughout. Further, in assay [20], the GI50 is > 100 µM (inactive).
As to `COC(=O)C1=C(C(=O)OC)SC(=C2SCSC3=C2SC(C(=O)OC)=C(C(=O)OC)C32SC3=C(CCCC3)S2)S1`, the GI50 in [1] is > 100 µM (inactive); in [2], > 100 µM (inactive); in assay [3], > 100 µM (inactive); in assay [4], > 100 µM (inactive); in [5], over 100 µM; in [6], > 100 µM (inactive). Also, the GI50 in [7] was > 100 µM (inactive); in assay [8] it was > 100 µM (inactive); in [9], 95.3 µM (inactive); in [10] it was > 100 µM (inactive); in [11], > 100 µM (inactive); in [12] it was > 100 µM (inactive). The GI50 is > 100 µM (inactive) in assay [13]; > 100 µM (inactive) in assay [15]; > 100 µM (inactive) in assay [16]; > 100 µM (inactive) in assay [17]; > 100 µM (inactive) in [18]; 47.6 µM (inactive) in assay [19]. Moreover, in assay [20], the GI50 is > 100 µM (inactive).

The values above are taken from ChEMBL document CHEMBL1201862, “PubChem BioAssay data set” (2004).
